The text below walks through data of patent US20200392107A1, “CYCLIC AMINE DERIVATIVE AND MEDICAL USE THEREOF” (Toray Industries, Inc., priority 2018, published 2020).

Each structure is given as a SMILES string.

The target of assay [1] is T1, RORγ-LBD (GST-fused ligand-binding domain of RORγ) / coactivator TRAP220/DRIP-2 (Homo sapiens, UniProt P51449).
T1 construct: purchased Invitrogen
T1 sequence (P51449 269-508 limits assumed): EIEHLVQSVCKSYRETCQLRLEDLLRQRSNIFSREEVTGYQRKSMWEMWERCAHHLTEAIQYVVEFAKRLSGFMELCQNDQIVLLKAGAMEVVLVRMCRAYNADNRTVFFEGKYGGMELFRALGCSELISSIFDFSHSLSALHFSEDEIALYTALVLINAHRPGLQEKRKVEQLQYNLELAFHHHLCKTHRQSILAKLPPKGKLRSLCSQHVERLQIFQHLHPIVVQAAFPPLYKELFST
Nature of the assay: Inhibitory effect on RORγ-coactivator binding (LanthaScreen TR-FRET RORγ Coactivator Assay). Format: biochemical. The settings on record: at 33 μmol/L of the test compound; read-out: RORγ-coactivator binding inhibition rate (%). Here is the method:
The inhibitory effect of the cyclic amine derivative (I) or a pharmacologically acceptable salt thereof on the binding between a ligand-binding domain of RORγ (hereinafter referred to as RORγ-LBD) and a coactivator was evaluated using Invitrogen's LanthaScreen™ TR-FRET Retinoid-Related Orphan Receptor (ROR) gamma Coactivator Assay kit utilizing time-resolved fluorescence energy transfer (TR-FRET).
A test compound was dissolved in DMSO and diluted with TR-FRET Coregulator Buffer D (Invitrogen) containing 5 mmol/L of DTT to have a final DMSO concentration of 1% before use. To each well of a 384-well black plate (Corning Inc.), 4 nmol/L of GST-fused RORγ-LBD (Invitrogen) diluted with the buffer mentioned above and the test compound were added. A well without addition of the test compound and without addition of GST-fused RORγ-LBD (background) and a well without addition of the test compound and with addition of GST-fused RORγ-LBD (control) were prepared. Next, 150 nmol/L of fluorescein-labeled TRAP220/DRIP-2 (Invitrogen) diluted with the buffer mentioned above and 32 nmol/L of terbium-labeled anti-GST antibody (Invitrogen) were added to each well. After incubating the plate at room temperature for 16 to 24 hours, the fluorescence at 495 nm and 520 nm when excited at 320 nm was measured for each well and the ratio (fluorescence value at 520 nm/fluorescence value at 495 nm) was calculated.
The fold change with addition of the test compound (ratio with addition of the test compound/ratio of the background), the fold change of the control (ratio of the control/ratio of the background), and the fold change of the background (ratio of the background/ratio of the background) were calculated, and then the inhibition rate of binding between RORγ-LBD and a coactivator (hereinafter referred to as RORγ-coactivator binding inhibition rate) (%) was calculated from Formula (1):
RORγ-coactivator binding inhibition rate (%)=(1−((Fold change with addition of the test compound)−(Fold change of the background))/((Fold change of the control)−(Fold change of the background)))×100 (1).
A general note: Time-resolved FRET reads energy transfer from a long-lived donor to a nearby acceptor.

Assay [2] deals with DNFB-induced mouse allergic dermatitis model. As to the kind of experiment: DNFB-induced mouse allergic dermatitis model. Format: in vivo. The settings on record: 10 mg/kg orally one hour before induction; BALB/c mice; vs vehicle, P<0.05. Here is the method: Using increase in the ear swelling rate as an index of exacerbation of symptoms, the effect of the cyclic amine derivative (I) or a pharmacologically acceptable salt thereof in a DNFB-induced mouse allergic dermatitis model was evaluated. The DNFB-induced mouse allergic dermatitis model was prepared by a partially modified method by Curzytek et al. (Pharmacological Reports, 2013, Vol. 65, p. 1237-1246).
BALB/c mice (female, 6 weeks old) (Charles River Laboratories Japan, Inc.) were used at 8 weeks old after preliminary breeding. To the back of the mice, 25 μL of a 0.5 v/v % DNFB solution dissolved in acetone:olive oil (4:1) was applied. The next day, the same operation was repeated to sensitize the mice. Four days after the sensitization, 10 μL each of a 0.2 v/v % DNFB solution dissolved in acetone:olive oil (4:1) was applied to both sides of the right auricle of the sensitized mice to induce inflammation.
One hour before induction, a test compound at a dose of 10 mg/kg was administered to the mice. As the test compound, the compound of Example 1, the compound of Example 4, and the compound of Example 9 were used. The compound of Example 1, the compound of Example 4, and the compound of Example 9 were respectively suspended in a 0.5 w/v % methylcellulose solution and orally administered. The group in which the compound of Example 1 was administered to mice was defined as the Example-1 compound administration group, the group in which the compound of Example 4 was administered was defined as the Example-4 compound administration group, and the group in which the compound of Example 9 was administered was defined as the Example-9 compound administration group. […]
The right ear thickness before application of the DNFB solution (before induction) on the induction day and the right ear thickness at the 24th hour after induction were measured with a digital micrometer (Mitutoyo Corporation). The swelling rate of the auricle was calculated by Formula (3) and used as an index of the drug efficacy evaluation: […]

A word on the inhibition: it is how much of the control response was suppressed.

For `CC(=O)N1CCCC[C@@H]1C(=O)Nc1cc(Cl)c2c(c1)CCCN2Cc1ccc(C(F)(F)F)cc1` [Example 1, (R)-1-acetyl-N-(8-chloro-1-(4-(trifluoromethyl)benzyl)-1,2,3,4-tetrahydroquinolin-6-yl)piperidine-2-carboxamide], the inhibition at 33 µM in assay [1] is 96.9%. In addition, in assay [2], the “increase in the ear swelling rate (24th hour after induction)” value (“increase in the ear swelling rate” for short) is “statistically significantly suppressed”.

For `CC(=O)N1CCCC[C@@H]1C(=O)Nc1cc(Cl)c2c(c1)CCN2Cc1ccc(C(F)(F)F)cc1` [Example 4, (R)-1-acetyl-N-(7-chloro-1-(4-(trifluoromethyl)benzyl)indolin-5-yl)piperidine-2-carboxamide], the inhibition at 33 µM in assay [1] is 96.7%. Besides, in assay [2], the “increase in the ear swelling rate” value is reported as “statistically significantly suppressed”.

As for `CC(=O)N1CCCC[C@@H]1C(=O)Nc1cc(Cl)c2c(c1)CCN2C[C@H]1CC[C@H](C(F)(F)F)CC1` [Example 9, (R)-1-acetyl-N-(7-chloro-1-((trans-4-(trifluoromethyl)cyclo-hexyl)methyl)indolin-5-yl)piperidine-2-carboxamide], in assay [1], the inhibition at 33 µM stood at 96.8%. Further, in assay [2], the “increase in the ear swelling rate” value is reported as “statistically significantly suppressed”.
